Measured values taken from patent publication US8501936B2 (priority 2009, dated 2013).
pIC50: −log10 of the molar value.

Experiments:
human JAK2 = human JAK2 (Homo sapiens (Human), UniProt O60674); conditions: read-out: JAK2 IC50
human FAK = human FAK (Homo sapiens (Human), UniProt Q05397); conditions: read-out: FAK IC50
Sequence of human FAK (Q05397 whole entry): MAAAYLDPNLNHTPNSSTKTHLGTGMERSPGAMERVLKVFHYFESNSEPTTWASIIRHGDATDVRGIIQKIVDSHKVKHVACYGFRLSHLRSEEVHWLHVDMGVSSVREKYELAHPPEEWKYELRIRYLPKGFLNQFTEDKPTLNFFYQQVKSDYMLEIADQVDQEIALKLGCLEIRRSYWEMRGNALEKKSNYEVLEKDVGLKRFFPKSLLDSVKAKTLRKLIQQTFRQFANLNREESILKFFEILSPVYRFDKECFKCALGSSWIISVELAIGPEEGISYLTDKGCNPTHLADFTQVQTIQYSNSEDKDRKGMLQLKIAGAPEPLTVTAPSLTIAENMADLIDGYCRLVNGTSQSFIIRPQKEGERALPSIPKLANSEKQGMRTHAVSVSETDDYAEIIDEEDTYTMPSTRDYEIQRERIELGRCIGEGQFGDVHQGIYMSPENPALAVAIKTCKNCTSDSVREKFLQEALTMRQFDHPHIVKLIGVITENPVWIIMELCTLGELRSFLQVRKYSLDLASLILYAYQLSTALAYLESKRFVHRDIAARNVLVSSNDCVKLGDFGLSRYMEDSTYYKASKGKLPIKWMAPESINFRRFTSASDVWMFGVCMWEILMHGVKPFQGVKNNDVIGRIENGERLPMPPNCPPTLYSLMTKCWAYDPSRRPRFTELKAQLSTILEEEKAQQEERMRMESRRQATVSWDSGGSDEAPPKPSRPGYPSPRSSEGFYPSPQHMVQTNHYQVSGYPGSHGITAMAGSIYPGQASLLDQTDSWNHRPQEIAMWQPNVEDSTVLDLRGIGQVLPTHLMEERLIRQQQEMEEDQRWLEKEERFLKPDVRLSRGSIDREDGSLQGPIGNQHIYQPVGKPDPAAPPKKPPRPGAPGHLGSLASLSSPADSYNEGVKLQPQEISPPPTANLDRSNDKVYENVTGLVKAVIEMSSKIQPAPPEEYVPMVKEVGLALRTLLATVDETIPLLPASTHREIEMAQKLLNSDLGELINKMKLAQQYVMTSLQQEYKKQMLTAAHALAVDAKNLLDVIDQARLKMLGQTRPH
Experimental: The ability of compounds to inhibit the kinase activity of baculovirus-expressed human FAK and PYK2 was measured using the 96-well plate TRF assay system described above for JAK2. […] For the FAK kinase assay, the reaction mixture (total volume=100 μL/well) contained 20 mM HEPES (pH 7.2), 10 μM ATP, 5 mM MgCl2, 0.5 mM DTT, 0.1% BSA, and test compound (diluted in DMSO; 2.5% DMSO final in assay). For PYK2, the 100 μL assay solution consisted of 20 mM HEPES (pH 7.2), 3 μM ATP, 5 mM MnCl2, 0.1% BSA, and test compound (diluted in DMSO; 2.5% DMSO final in assay). Enzyme (10 ng/mL FAK or 25 ng/mL PYK2) was added and the reaction was allowed to proceed at room temperature for 30 min. Detection of the phosphorylated product was performed by adding 100 μL/well of Eu—N1 labeled PY100 antibody diluted 1:75000 in 0.25% BSA in TBS-T (PerkinElmer #AD0041). […] Inhibition data were analyzed using ActivityBase and IC50 curves generated using XLFit.

Sequence of human JAK2 (O60674 815-1132): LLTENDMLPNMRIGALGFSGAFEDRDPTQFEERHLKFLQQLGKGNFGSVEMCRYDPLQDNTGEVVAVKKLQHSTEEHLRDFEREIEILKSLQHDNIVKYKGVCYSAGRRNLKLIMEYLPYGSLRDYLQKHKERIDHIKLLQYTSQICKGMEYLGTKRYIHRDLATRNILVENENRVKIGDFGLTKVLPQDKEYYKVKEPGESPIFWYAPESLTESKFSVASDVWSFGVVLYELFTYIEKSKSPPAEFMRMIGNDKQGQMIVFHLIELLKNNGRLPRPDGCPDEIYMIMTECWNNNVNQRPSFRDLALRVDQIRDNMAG

| SMILES | pIC50 (human JAK2) | pIC50 (human FAK) |
| --- | --- | --- |
| CN1CCN(c2cccc(Nc3nc4c(Nc5cccnc5N(C)S(C)(=O)=O)cccn4n3)c2)CC1 [Example 111, N-Methyl-N-(3-{2-[3-(4-methyl-piperazin-1-yl)-phenylamino]-[1,2,4]triazolo[1,5-a]pyridin-8-ylamino}-pyridin-2-yl)-methanesulfonamide] | 7.22 | 5.70 |
| CN1CCN(c2ccc(Nc3nc4cccc(-c5ccc(CN6CCS(=O)(=O)CC6)cc5)n4n3)cc2)CC1 [Example 70, 5-{4-[(1,1-dioxidothiomorpholin-4-yl)methyl]phenyl}-N-[4-(4-methylpiperazin-1-yl)phenyl][1,2,4]triazolo[1,5-a]pyridin-2-amine] | 8.96 | 6.54 |
| CN1CCN(c2ccc(Nc3nc4c(CCc5ccccc5N(C)S(C)(=O)=O)cccn4n3)cc2)CC1 [Example 194, N-Methyl-N-[2-(2-{2-[4-(4-methyl-piperazin-1-yl)-phenylamino]-[1,2,4]triazolo[1,5-a]pyridin-8-yl}-ethyl)-phenyl]-methanesulfonamide] | 6.66 | 7.38 |
| CS(=O)(=O)c1ccc(Nc2nc3c(-c4ccc(S(C)(=O)=O)cc4)cccn3n2)cc1 [Example 112, (4-Methanesulfonyl-phenyl)-[8-(4-methanesulfonyl-phenyl)-[1,2,4]triazolo[1,5-a]pyridin-2-yl]-amine] | 8.89 | 6.27 |
| CN1CCN(c2cccc(Nc3nc4c(-c5ccc(P(C)(C)=O)cc5)cccn4n3)c2)C(=O)C1 [Example 207, 1-(3-{8-[4-(Dimethyl-phosphinoyl)-phenyl]-[1,2,4]triazolo[1,5-a]pyridin-2-ylamino}-phenyl)-4-methyl-piperazin-2-one] | 7.98 | 5.00 |
| COc1ccccc1CNc1cccn2nc(Nc3ccc(C)nc3)nc12 [Example 403, N(8)-(2-Methoxy-benzyl)-N(2)-(6-methyl-pyridin-3-yl)-[1,2,4]triazolo[1,5-a]pyridine-2,8-diamine] | 7.56 | 5.73 |
| COc1cnc(-c2cccn3nc(Nc4ccc(C5CCNCC5)cc4)nc23)cn1 [Example 285] | 7.13 | 5.61 |
| CS(=O)(=O)c1cccc(-c2cccc3nc(Nc4ccc(N5CCOCC5)cc4)nn23)c1 [Example 78, [5-(3-Methanesulfonyl-phenyl)-[1,2,4]triazolo[1,5-a]pyridin-2-yl]-(4-morpholin-4-yl-phenyl)-amine] | 8.49 | 5.82 |
| FC(F)COc1ccc(C(F)(F)F)cc1-c1cccn2nc(Nc3ccc4c(c3)CCNCC4)nc12 [Example 328] | 6.59 | 6.00 |
| CS(=O)(=O)c1ccc(-c2cccn3nc(NCc4cccnc4)nc23)cc1 [Example 408, [8-(4-Methanesulfonyl-phenyl)-[1,2,4]triazolo[1,5-a]pyridin-2-yl]-pyridin-3-ylmethyl-amine] | 5.56 | 5.00 |
| CS(=O)(=O)c1cccc(-c2cccn3nc(Nc4cccc(N5CCOCC5)c4)nc23)c1 [Example 29, [8-(3-Methanesulfonyl-phenyl)-[1,2,4]triazolo[1,5-a]pyridin-2-yl]-(3-morpholin-4-yl-phenyl)-amine] | 8.25 | 5.87 |
| CC(C)S(=O)(=O)c1ccc(-c2cccn3nc(Nc4ccc(N5CCN(C)CC5)cc4)nc23)cc1 [Example 52, [4-(4-Methyl-piperazin-1-yl)-phenyl]-{8-[4-(propane-2-sulfonyl)-phenyl]-[1,2,4]triazolo[1,5-a]pyridin-2-yl}-amine] | 8.68 | 6.51 |
| CS(=O)(=O)c1ccc(-c2cccn3nc(Nc4cccc(N5CCN(CCO)CC5)c4)nc23)cc1 [Example 152, 2-(4-{3-[8-(4-Methanesulfonyl-phenyl)-[1,2,4]triazolo[1,5-a]pyridin-2-ylamino]-phenyl}-piperazin-1-yl)-ethanol] | 8.63 | 6.00 |
| CN1CCN(c2ccc(Nc3nc4c(NCc5cccnc5)cccn4n3)cc2)CC1 [Example 151, N(2)-[4-(4-Methyl-piperazin-1-yl)-phenyl]-N(8)-pyridin-3-ylmethyl-[1,2,4]triazolo[1,5-a]pyridine-2,8-diamine] | 6.31 | 5.19 |
| CN1CCN(c2cccc(Nc3nc4c(-c5cnn(-c6ccc(F)cc6)c5)cccn4n3)c2)CC1 [Example 288, {8-[1-(4-Fluoro-phenyl)-1H-pyrazol-4-yl]-[1,2,4]triazolo[1,5-a]pyridine-2-yl}-[3-(4-methyl-piperazin-1-yl)-phenyl]-amine] | 8.25 | 5.52 |
| COc1ccc(C(F)(F)F)cc1-c1cccn2nc(Nc3cccc(C4CCNCC4)c3)nc12 [Example 257, [8-(2-Methoxy-5-trifluoromethyl-phenyl)-[1,2,4]triazolo[1,5-a]pyridin-2-yl]-(3-piperidin-4-yl-phenyl)-amine] | 7.54 | 6.32 |

| SMILES | pIC50 (human JAK2) | pIC50 (human FAK) |
| --- | --- | --- |
| COc1ccccc1-c1cccn2nc(Nc3ccc4c(c3)CCN(CCS(C)(=O)=O)CC4)nc12 [Example 314, [3-(2-Methanesulfonyl-ethyl)-2,3,4,5-tetrahydro-1H-3-benzazepin-7-yl]-[8-(2-methoxy-phenyl)-[1,2,4]triazolo[1,5-a]pyridine-2-yl]-amine] | 7.75 | 5.00 |
| CCOc1ccc(C(F)(F)F)cc1-c1cccn2nc(Nc3ccc4c(c3)CCN(CC(=O)N(C)C)CC4)nc12 [Example 321, 2-{7-[8-(2-Ethoxy-5-trifluoromethyl-phenyl)-[1,2,4]triazolo[1,5-a]pyridin-2-ylamino]-1,2,4,5-tetrahydro-3-benzazepin-3-yl}-N,N-dimethyl-acetamide] | 6.65 | 5.75 |
| CN(C)C(=O)CN1CCc2ccc(Nc3nc4c(-c5cc(C(F)(F)F)ccc5OCC(F)F)cccn4n3)cc2CC1 [Example 329, 2-(7-{8-[2-(2,2-Difluoro-ethoxy)-5-trifluoromethyl-phenyl]-[1,2,4]triazolo[1,5-a]pyridin-2-ylamino}-1,2,4,5-tetrahydro-3-benzazepin-3-yl)-N,N-dimethyl-acetamide] | 6.50 | 6.00 |
| CN(c1ccccc1CNc1cccn2nc(Nc3ccc4cnccc4c3)nc12)S(C)(=O)=O [Example 201, N-(2-{[2-(Isoquinolin-6-ylamino)-[1,2,4]triazolo[1,5-a]pyridin-8-ylamino]-methyl}-phenyl)-N-methyl-methanesulfonamide] | 6.93 | 6.78 |
| COc1cnc(-c2cccn3nc(Nc4ccc(C5CCN(CC(=O)N(C)C)CC5)cc4)nc23)cn1 [Example 286, 2-(4-{4-[8-(5-Methoxy-pyrazin-2-yl)-[1,2,4]triazolo[1,5-a]pyridine-2-ylamino]-phenyl}-piperidin-1-yl)-N,N-dimethyl-acetamide] | 6.87 | 5.52 |
| COc1ccc(C(F)(F)F)cc1-c1cccc2nc(Nc3ccc4c(c3)CCN(CCSC)CC4)nn12 [Example 235, [5-(2-Methoxy-5-trifluoromethyl-phenyl)-[1,2,4]triazolo[1,5-a]pyridin-2-yl]-(3-(2-methylsulfanyl-ethyl)-2,3,4,5-tetrahydro-1H-3-benzazepin-7-yl]-amine] | 7.57 | 6.87 |
| CN(C)C(=O)CN1CCc2ccc(Nc3nc4c(-c5cc(S(C)(=O)=O)ccc5OCC(F)F)cccn4n3)cc2CC1 [Example 373, 2-(7-{8-[2-(2,2-Difluoro-ethoxy)-5-methanesulfonyl-phenyl]-[1,2,4]triazolo[1,5-a]pyridin-2-ylamino}-1,2,4,5-tetrahydro-3-benzazepin-3-yl)-N,N-dimethyl-acetamide] | 6.30 | 5.00 |
| Cc1ccc(OCC(C)C)c(-c2cccn3nc(Nc4ccc5c(c4)CCNCC5)nc23)c1 [Example 305, [8-(2-Isobutoxy-5-methyl-phenyl]-[1,2,4]triazolo[1,5a]pyridine-2-yl]-(2,3,4,5-tetrahydro-benzo[d]azepin-7-yl)-amine] | 5.51 | 5.00 |
| CC(C)COc1cccc(-c2cccn3nc(Nc4ccc5c(c4)CCNCC5)nc23)c1 [Example 294, [8-(3-Isobutoxy-phenyl]-[1,2,4]triazolo[1,5a]pyridine-2-yl]-(2,3,4,5-tetrahydro-benzo[d]azepin-7-yl)-amine] | 7.49 | 5.52 |
| CN1CCN(c2ccc(Nc3nc4c(Nc5ccccc5S(C)(=O)=O)cccn4n3)cc2)CC1 [Example 72, N(8)-(2-Methanesulfonyl-phenyl)-N(2)-[4-(4-methyl-piperazin-1-yl)-phenyl]-[1,2,4]triazolo[1,5-a]pyridine-2,8-diamine] | 8.08 | 6.42 |
| CN1CCN(c2ccc(Nc3nc4c(NCC5CCN(C(=O)OC(C)(C)C)C5)cccn4n3)cc2)CC1 (centres unmarked) [Example 163, 3-({2-[4-(4-Methyl-piperazin-1-yl)-phenylamino]-[1,2,4]triazolo[1,5-a]pyridin-8-ylamino}-methyl)-pyrrolidine-1-carboxylic acid tert-butyl ester] | 7.01 | 5.00 |
| CN1CCN(c2cccc(Nc3nc4c(Nc5ccccc5CN(C)S(C)(=O)=O)cccn4n3)c2)CC1 [Example 172, N-Methyl-N-(2-{2-[3-(4-methyl-piperazin-1-yl)-phenylamino]-[1,2,4]triazolo[1,5-a]pyridin-8-ylamino}-benzyl)-methanesulfonamide] | 6.34 | 5.52 |
| COc1cc(N2CCN(C)CC2)ccc1Nc1nc2c(NCc3cccnc3N(C)S(C)(=O)=O)cccn2n1 [Example 137, N-[3-({2-[2-Methoxy-4-(4-methyl-piperazin-1-yl)-phenylamino]-[1,2,4]triazolo[1,5-a]pyridin-8-ylamino}-methyl)-pyridin-2-yl]-N-methyl-methanesulfonamide] | 5.52 | 7.40 |
| CS(=O)(=O)c1ccc(-c2cccn3nc(Nc4ccc(N5CCOCC5)cc4)nc23)cc1 [Example 4, [8-(4-Methanesulfonyl-phenyl)-[1,2,4]triazolo[1,5-a]pyridin-2-yl]-(4-morpholin-4-yl-phenyl)-amine] | 9.05 | 6.34 |
| CN1CCN(c2cccc(Nc3nc4c(NCc5ccc(F)cc5)cccn4n3)c2)CC1 [Example 396, N(8)-(4-Fluoro-benzyl)-N(2)-[3-(4-methyl-piperazin-1-yl)-phenyl]-[1,2,4]triazolo[1,5-a]pyridine-2,8-diamine] | 5.84 | 5.00 |
